Source: patent US8772307B2, “Substituted spiro compounds and their use for producing pain-relief medicaments” (Gruenenthal GmbH, priority 2005, dated 2014)
pIC50: −log10 of the molar value.

Experiments:
vanilloid receptor (VR1) = molecular target: T1, vanilloid receptor (VR1) (Homo sapiens, UniProt Q8NER1); test: Functional testing on vanilloid receptor (VR1): FLIPR Ca2+ inflow assay in CHO K1 cells stably transfected with the VR1 gene; format: cell-based; details: for inhibition at 10 µM: CHO-K1, inhibition compared to 10 μM CP (capsaicin); for activation at 10 µM: CHO-K1, stimulation compared to 10 μM CP (capsaicin); for pIC50: capsaicin (CAP) stimulus, average
T1 construct: expressed in transfected cells; host or cells: CHO K1 cells (ECACC), stably transfected
T1 sequence (Q8NER1 whole entry): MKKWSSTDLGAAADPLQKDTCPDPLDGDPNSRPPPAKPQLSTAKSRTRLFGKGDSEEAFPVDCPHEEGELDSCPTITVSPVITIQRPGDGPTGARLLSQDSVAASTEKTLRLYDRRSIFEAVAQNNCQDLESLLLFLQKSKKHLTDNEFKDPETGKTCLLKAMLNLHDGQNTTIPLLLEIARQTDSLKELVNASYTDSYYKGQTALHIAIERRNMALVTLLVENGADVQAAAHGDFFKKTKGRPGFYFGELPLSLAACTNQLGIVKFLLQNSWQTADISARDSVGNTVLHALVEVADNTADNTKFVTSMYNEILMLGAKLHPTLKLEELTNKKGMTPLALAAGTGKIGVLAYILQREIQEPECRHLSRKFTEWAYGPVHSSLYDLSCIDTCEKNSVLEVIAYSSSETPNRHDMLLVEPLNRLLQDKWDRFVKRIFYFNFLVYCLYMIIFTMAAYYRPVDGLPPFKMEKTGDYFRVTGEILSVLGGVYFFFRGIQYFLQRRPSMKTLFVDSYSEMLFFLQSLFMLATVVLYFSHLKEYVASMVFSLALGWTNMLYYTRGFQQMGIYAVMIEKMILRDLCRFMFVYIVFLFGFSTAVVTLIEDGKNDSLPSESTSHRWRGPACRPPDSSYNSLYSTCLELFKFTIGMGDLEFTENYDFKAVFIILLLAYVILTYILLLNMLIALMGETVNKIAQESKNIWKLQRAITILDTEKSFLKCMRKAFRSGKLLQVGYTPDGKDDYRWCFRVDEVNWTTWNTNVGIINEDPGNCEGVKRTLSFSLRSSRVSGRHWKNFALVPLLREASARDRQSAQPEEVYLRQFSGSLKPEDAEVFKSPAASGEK
Text: II. Functional Testing Carried Out on the Vanilloid Receptor (VR1)
The agonistic or antagonistic effect of the substances to be tested can also be determined on the vanilloid receptor (VR1) using the following assay. According to this assay, the Ca^2+ inflow is quantified through the channel using a Ca^2+-sensitive dye (type Fluo-4, Molecular Probes Europe BV, Leiden, Netherlands) in a fluorescent imaging plate reader (FLIPR, Molecular Devices, Sunnyvale, USA).
Chinese hamster ovary cells (CHO K1 cells, European Collection of Cell Cultures (ECACC) United Kingdom) were stably transfected with the VR1 gene. For functional testing, these cells were plated out on poly-D-lysine-coated black 96 well plates having a clear base (BD Biosciences, Heidelberg, Germany) at a density of 25,000 cells/well. The cells were incubated overnight at 37° C. and 5% CO2 in a culture medium (Ham's F12 nutrient mixture, 10% by volume of FCS (foetal calf serum), 18 μg/ml L-proline). The next day the cells were incubated with Fluo-4 (Fluo-4 2 μM, 0.01% by volume of Pluronic F127, Molecular Probes in HBSS (Hank's buffered saline solution), Gibco Invitrogen GmbH, Karlsruhe, Germany) for 30 minutes at 37° C. Subsequently, the plates were washed 3 times with HBSS buffer and after further incubation for 15 minutes at room temperature used for Ca^2+ measurement in a FLIPR assay. The Ca^2+-dependent fluorescence was measured before and after the addition of the substances to be tested (λex wavelength=488 nm, λem=540 nm). Quantification was carried out by measuring the highest fluorescence intensity (FC, Fluorescence Counts) over time.
The FLIPR protocol consists of 2 substance additions. First the compounds to be tested (10 μM) were pipetted onto the cells and the Ca^2+ inflow was compared with the control (capsaicin 10 μM) (% activation based on the Ca^2+ signal after the addition of 10 μM capsaicin). After 5 minutes' incubation, 100 nM of capsaicin were administered and the Ca^2+ inflow was also determined.
Desensitising agonists and antagonists led to suppression of the Ca^2+ inflow. The % inhibition was calculated compared to the maximum achievable inhibition with 10 μM of capsaicin.

[1] = molecular target: T2, rat-species vanilloid receptor 1 (VR1/TRPV1) (Rattus norvegicus, UniProt O35433); test: Functional testing on vanilloid receptor 1 (VR1/TRPV1): FLIPR Ca2+ inflow assay in rat dorsal root ganglia cells (% activation / % inhibition vs capsaicin); format: cell-based; details: for inhibition at 10 µM: inhibition compared to 10 μM CP (capsaicin); for activation at 10 µM: stimulation compared to 10 μM CP (capsaicin); for pIC50: capsaicin (CAP) stimulus, average
T2 construct: endogenous in cells; host or cells: primary cells dissociated from rat dorsal root ganglia (DRG)
T2 sequence (O35433 whole entry): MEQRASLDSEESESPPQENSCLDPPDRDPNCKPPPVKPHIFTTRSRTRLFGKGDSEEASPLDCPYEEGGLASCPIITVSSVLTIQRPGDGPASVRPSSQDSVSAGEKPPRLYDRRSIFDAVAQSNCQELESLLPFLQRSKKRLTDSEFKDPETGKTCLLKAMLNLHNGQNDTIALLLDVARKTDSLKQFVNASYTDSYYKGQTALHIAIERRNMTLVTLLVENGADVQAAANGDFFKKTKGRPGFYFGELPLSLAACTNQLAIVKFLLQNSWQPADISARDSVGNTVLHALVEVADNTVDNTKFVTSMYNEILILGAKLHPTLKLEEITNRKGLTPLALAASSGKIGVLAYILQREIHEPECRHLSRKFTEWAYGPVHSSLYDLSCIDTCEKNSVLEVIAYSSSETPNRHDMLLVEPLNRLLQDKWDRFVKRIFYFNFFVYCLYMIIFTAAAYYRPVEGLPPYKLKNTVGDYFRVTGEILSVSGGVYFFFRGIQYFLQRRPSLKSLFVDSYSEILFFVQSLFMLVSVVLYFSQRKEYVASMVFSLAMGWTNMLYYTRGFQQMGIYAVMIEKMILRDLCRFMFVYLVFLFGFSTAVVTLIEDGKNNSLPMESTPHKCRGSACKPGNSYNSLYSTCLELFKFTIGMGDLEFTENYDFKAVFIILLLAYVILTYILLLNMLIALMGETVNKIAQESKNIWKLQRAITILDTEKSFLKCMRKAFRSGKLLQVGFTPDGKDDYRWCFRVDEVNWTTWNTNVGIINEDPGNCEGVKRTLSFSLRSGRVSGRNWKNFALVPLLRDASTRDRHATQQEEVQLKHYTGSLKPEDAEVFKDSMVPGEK
Method: Preference may also be given to substituted spiro compounds according to the invention of general formula I which in a FLIPR assay in a concentration of 10 μM display inhibition of the Ca^2+ ion inflow in dorsal root ganglia of rats of at least 30%, preferably of at least 40%, particularly preferably of at least 50%, most particularly preferably of at least 70%, even more preferably of at least 90%, compared to the maximum achievable inhibition of the Ca^2+ ion inflow with capsaicin in a concentration of 10 μM.
In the FLIPR assay, the Ca^2+ inflow is quantified using a Ca^2+-sensitive dye (type Fluo-4, Molecular Probes Europe BV, Leiden, Netherlands) in a fluorescent imaging plate reader (FLIPR, Molecular Devices, Sunnyvale, USA), as described hereinafter.
I. Functional Testing Carried Out on the Vanilloid Receptor 1 (VR1/TRPV1 Receptor)
The agonistic or antagonistic effect of the substances to be tested can be determined on the rat-species vanilloid receptor 1 (VR1/TRPV1) using the following assay. According to this assay, the Ca^2+ inflow is quantified through the receptor channel using a Ca^2+-sensitive dye (type Fluo-4, Molecular Probes Europe BV, Leiden, Netherlands) in a fluorescent imaging plate reader (FLIPR, Molecular Devices, Sunnyvale, USA).
Complete medium: 50 mL HAMS F12 nutrient mixture (Gibco Invitrogen GmbH, Karlsruhe, Germany) with
10% by volume of FCS (foetal calf serum, Gibco Invitrogen GmbH, Karlsruhe, Germany, […]);
2 mM L-glutamine (Sigma, Munich, Germany);
1% by weight of AA solution (antibiotic/antimyotic solution, PAA, Pasching, Austria)
and 25 ng/ml NGF medium (2.5 S, Gibco Invitrogen GmbH, Karlsruhe, Germany)
Cell culture plate: Poly-D-lysine-coated, black 96 well plates having a clear base (96 well black/clear plate, BD Biosciences, Heidelberg, Germany) were additionally coated with laminin (Gibco Invitrogen GmbH, Karlsruhe, Germany), the laminin being diluted with PBS (Ca—Mg-free PBS, Gibco Invitrogen GmbH, Karlsruhe, Germany) to a concentration of 100 μg/mL. Aliquots having a laminin concentration of 100 μg/mL were removed and stored at −20° C. The aliquots were diluted with PBS in a ratio of 1:10 to 10 μg/mL laminin and in each case 50 μL of the solution were pipetted into a recess in the cell culture plate. The cell culture plates were incubated for at least two hours at 37° C., the excess solution was removed by suction-filtration and the recesses were each washed twice with PBS. The coated cell culture plates were stored with excess PBS which was not removed until just before the feeding of the cells.
Preparation of the Cells:
The vertebral column was removed from decapitated rats and placed immediately into cold HBSS buffer (Hank's buffered saline solution, Gibco Invitrogen GmbH, Karlsruhe, Germany), i.e. buffer located in an ice bath, mixed with 1% by volume (percent by volume) of an AA solution (antibiotic/antimyotic solution, PAA, Pasching, Austria). The vertebral column was cut longitudinally and removed together with fasciae from the vertebral canal. Subsequently, the dorsal root ganglia (DRG) were removed and again stored in cold HBSS buffer mixed with 1% by volume of an AA solution. The DRG, from which all blood remnants and spinal nerves had been removed, were transferred in each case to 500 μL of cold type 2 collagenase (PAA, Pasching, Austria) and incubated for 35 minutes at 37° C. After the addition of 2.5% by volume of trypsin (PAA, Pasching, Austria), incubation was continued for 10 minutes at 37° C. After complete incubation, the enzyme solution was carefully pipetted off and 500 μL of complete medium were added to each of the remaining DRG. The DRG were in each case suspended several times, drawn through cannulae No. 1, No. 12 and No. 16 using a syringe and transferred to a 50 mL Falcon tube which was filled up to 15 mL with complete medium. […]

Structure (SMILES)	inhibition at 10 µM (vanilloid receptor (VR1)) [%]	activation at 10 µM (vanilloid receptor (VR1)) [%]	inhibition at 10 µM [1] [%]	activation at 10 µM [1] [%]	pIC50 (vanilloid receptor (VR1))	pIC50 [1]
CCc1ccccc1NC(=O)N1CCC2(CC1)CC(c1cccc(OC)c1)=NO2 [Compound 156, 3-(3-methoxyphenyl)-1-oxa-2,8-diazaspiro[4.5]dec-2-ene-8-carboxylic acid-(2-ethylphenyl)amide]	-7.89	0.69	48.2	0.2		
COc1cccc(C2=NOC3(CCN(C(=O)NCCc4ccccc4)CC3)C2)c1 [Compound 122, 3-(3-methoxyphenyl)-1-oxa-2,8-diazaspiro[4.5]dec-2-ene-8-carboxylic acid phenethylamide]	-13.1	0.07	49.2	-0.47		
CC1CN(C(=O)/C=C/c2ccc(C(F)(F)F)nc2N2CCCCC2)CCC12CC(c1ccccc1)=NO2 (stereo not shown) [Compound 367, (E)-1-(6-methyl-3-phenyl-1-oxa-2,8-diazaspiro[4.5]dec-2-en-8-yl)-3-(2-(piperidin-1-yl)-6-(trifluoromethyl)pyridin-3-yl)prop-2-en-1-one]	93	0	96	-1		
CC(C)(C)c1ccc(C(/C=C/c2ccccc2)=C/C(=O)N2CCC3(CC2)CC(c2cccc(F)c2)=NO3)cc1 [Compound 358, (2E,4E)-3-(4-tert-butylphenyl)-1-(3-(3-fluorophenyl)-1-oxa-2,8-diazaspiro[4.5]dec-2-en-8-yl)-5-phenylpenta-2,4-dien-1-one]	41	0	95	0	5.95	6.83
O=C(Nc1cccc(C(F)(F)F)c1)N1CCC2(CC1)CC(c1ccccc1)=NO2 [Compound 90, 3-phenyl-1-oxa-2,8-diazaspiro[4.5]dec-2-ene-8-carboxylic acid-(3-trifluoromethylphenyl)amide]	-7.62	-0.15	55.9	-0.47		
O=C(Nc1ccc(C(F)(F)F)cc1)N1CCC2(CC1)CC(c1ccccc1)=NO2 [Compound 211, 3-phenyl-1-oxa-2,8-diazaspiro[4.5]dec-2-ene-8-carboxylic acid-(4-trifluoromethylphenyl)amide]	9.23	-0.18	97.5	0.33		
Cc1ccc(C2=NOC3(CCN(C(=O)Nc4ccc(C(C)(C)C)cc4)CC3)C2)cc1 [Compound 144, 3-p-tolyl-1-oxa-2,8-diazaspiro[4.5]dec-2-ene-8-carboxylic acid-(4-tert-butylphenyl)amide]	-16.6	-0.18	94.5	-0.43		
CC1CN(C(=O)Nc2ccc(C(C)(C)C)cc2)CCC12CC(c1ccccc1)=NO2 (stereo not shown) [Compound 369, N-(4-tert-butylphenyl)-6-methyl-3-phenyl-1-oxa-2,8-diazaspiro[4.5]dec-2-ene-8-carboxamide]	19	-1	110	0	5.97	6.76
O=C(/C=C/c1ccc(C(F)(F)F)nc1N1CCCCC1)N1CCC2(CC1)CC(c1cccc(F)c1)=NO2 [Compound 365, (E)-1-(3-(3-fluorophenyl)-1-oxa-2,8-diazaspiro[4.5]dec-2-en-8-yl)-3-(2-(piperidin-1-yl)-6-(trifluoromethyl)pyridin-3-yl)prop-2-en-1-one]	74	-1	94	0		
CC(C)(C)c1ccc(NC(=O)N2CCC3(CC2)CC(c2cccc(F)c2)=NO3)cc1 [Compound 351, N-(4-tert-butylphenyl)-3-(3-fluorophenyl)-1-oxa-2,8-diazaspiro[4.5]dec-2-ene-8-carboxamide]	83	3	101	6		
Cc1ccc(C2=NOC3(CCN(C(=O)Nc4cc(C(F)(F)F)ccc4Cl)CC3)C2)cc1 [Compound 225, 3-p-tolyl-1-oxa-2,8-diazaspiro[4.5]dec-2-ene-8-carboxylic acid-(2-chloro-5-trifluoromethylphenyl)amide]	-4.5	0.31	47.8	-0.47		
COc1cccc(C2=NOC3(CCN(C(=O)Nc4ccc(C(C)C)cc4)CC3)C2)c1 [Compound 77, 3-(3-methoxyphenyl)-1-oxa-2,8-diazaspiro[4.5]dec-2-ene-8-carboxylic acid-(4-isopropylphenyl)amide]	5.49	0.1	95.4	3.81		
CCCc1ccccc1NC(=O)N1CCC2(CC1)CC(c1ccccc1)=NO2 [Compound 22, 3-phenyl-1-oxa-2,8-diazaspiro[4.5]dec-2-ene-8-carboxylic acid-(2-propylphenyl)amide]	10.1	-0.14	40.3	-0.73		
CC(C)(C)c1ccc(C2=NOC3(CCN(C(=O)Nc4ccc(Cl)cc4)CC3)C2)cc1 [Compound 42, 3-(4-tert-butylphenyl)-1-oxa-2,8-diazaspiro[4.5]dec-2-ene-8-carboxylic acid-(4-chlorophenyl)amide]	2.57	-0.22	39.9	-0.73		
Cc1ccc(C2=NOC3(CCN(C(=O)Nc4ccc(Cl)c(C(F)(F)F)c4)CC3)C2)cc1 [Compound 236, 3-p-tolyl-1-oxa-2,8-diazaspiro[4.5]dec-2-ene-8-carboxylic acid-(4-chloro-3-trifluoromethylphenyl)amide]	-10.3	-0.28	45.1	-0.47		
